Measurements: patent US6211439A, “Herbicide resistance in plants” (MGI Pharma, Inc, priority 1995, dated 2001)

Columns and labels:
cell line XA119 = assay: Tolerance of cell line XA119 at the cellular level; assay type: cell-based, maize
[1] = tested on: XA17 seedlings homozygous for the herbicide resistance trait; assay: Seedling assay, XA17 seedlings homozygous for the resistance trait; assay type: in vivo, maize
Method: (§1) Twenty control seeds and ten XA17 seeds were surface sterilized with 2.6% sodium hypochlorite for twenty minutes and then washed with sterile distilled water. The seed was imbibed overnight in sterile water containing a small quantity of the fungicide, captan (N-trichloromethylthio-4-cyclohexene-1,2-dicarboximide). The mature embryos were then excised from the seed and plated scutellum side down on solid MS media without 2,4-D. Ten control seeds were plated on media containing no 214 and ten were plated in the presence of 6×10^-8M 214 which had been incorporated into the medium after autoclaving but before gelling. All ten XA17 seeds were plated in the presence of 6×10^-8 M 214. Seedlings were evaluated seven days after plating.
(§2) XA17 seeds homozygous for the resistance trait were obtained as described in Section 6.4.6. […] Assays were conducted as described in Section 6.4.5.

control seedlings = assay: Seedling assay, control (herbicide sensitive) seedlings; assay type: in vivo, maize
Excerpt: Seeds to be used as controls in the heritability assay were obtained from regenerated plants from an herbicide sensitive cell line of the same genetic background as line XA17. These regenerated plants were crossed with pollen obtained from a herbicide sensitive inbred B73 plant grown from seed. Seeds were harvested approximately forty days after pollination.
as §1, §2

[2] = tested on: isozymes of AHAS (I, II and III); assay: E. coli AHAS isozymes assayed in vitro; assay type: biochemical; conditions: millimolar concentrations
Excerpt: Genes encoding AHAS are common to the aspartate and branched chain amino acid pathways in plants and microorganisms (Umbarger, 1978, Ann. Rev. Biochem, 47: 533-606). AHAS catalyzes the first step in the synthesis of the amino acids leucine, valine and isoleucine. AHAS activity is regulated in vivo by various end products or combination of end products of the biosynthetic pathway. AHAS genes with a variety of regulatory characteristics are available from microorganisms including, but not limited to, Escherichia coli, yeast and Neurospora. These might include AHAS genes which are naturally resistant to the imidazolinone herbicides. […] Resistance of E. coli to AC 243,997 therefore appears to be the result of an insensitive site of action as opposed to being a result of metabolism of the herbicide. Resistance in other organisms is likely to be of the same nature, providing a variety of sources of a gene encoding an herbicide resistant AHAS. The genes encoding all three E. coli isozymes have been cloned and sequenced. Selection for imidazolinone resistant mutant AHAS genes in microorganisms or plants including plant tissue cultures would provide a diverse source of genes which, when transferred to plants, produce herbicide resistant plants.

[3] = tested on: AHAS activity from line UV18; assay: AHAS activity assay, line UV18; assay type: biochemical, maize; conditions: 3×10^-6 to 3×10^-4 M 997
Method: Assays were conducted as a modification of the procedure of Smith et al. (1979, Molec. Gen. Genet. 169: 299-314). Plant cell culture material was ground with sand in a cold mortar and pestle in an equal quantity (w/v) of cell disruption media containing 0.05 M potassium phosphate (pH 7.0), 0.1 mM MgSO4, and 0.5 mM dithiothreitol. The preparation was centrifuged at 11,000×g for 20 minutes and the supernatant assayed for AHAS activity. Assays were conducted in 1 ml volumes containing 0.05 M potassium phosphate (pH 8.0), 40 mM pyruvate, 5 mM MgCl2, 0.1 mM thiamine pyrophosphate, 0.2 ml cell extract, and various concentrations of the herbicide of interest. The reaction mixtures were incubated at 30° C. for 75 minutes and the reaction terminated with the addition of 0.1 ml of 50% (v/v) H2 SO4. Following further incubation at 40° C. for 20 minutes, the acetoin formed from acetolactate by acidification was quantitated using the method of Westerfield (1945, J. Biol. Chem. 161: 495). To 0.2 ml of reaction mixture, 0.8 ml of water, 0.5 ml of 0.5% (w/v) creatine, and 0.5 ml of 5% (w/v) naphthol in 10% (w/v) NaOH was added. After mixing, solutions were incubated at room temperature for one hour. The development of pink color was quantitated by measuring light absorbance at 530 nm. […]

[4] = control seedlings, 6×10^-8 M 214, seven days after plating

| SMILES | enhancement of tolerance at the cellular level (cell line XA119) | shoot growth inhibition at the highest concentration tested ([1]; 3×10^-6 M, seedlings homozygous for the resistance trait) | resistance of XA17 homozygous seedlings ([1]; vs control seedlings) | IC50 (control seedlings; Zea mays, read-out: concentration inhibiting shoot growth 50%) [nM] | average root length (control seedlings; [4]) [cm] | average shoot length (control seedlings; [4]) [cm] | sensitivity of AHAS isozymes I, II and III [2] | tolerance of AHAS activity vs AHAS from control cultures [3] |
| --- | --- | --- | --- | --- | --- | --- | --- | --- |
| CC(C)C1(C)NC(c2nc3ccccc3cc2C(=O)O)=NC1=O (centres unmarked) [compound 214, 2-(5-isopropyl-5-methyl-4-oxo-2-imidazolin-2-yl)3-quinolinecarboxylic acid] | approximately three fold | no inhibition | at least 100 fold | 30 | 1.1 | 1.5 |  |  |
| CC(C)C1(C)NC(c2ncccc2C(=O)O)=NC1=O (centres unmarked) [compound 997, 2-(5-isopropyl-5-methyl-4-oxo-2-imidazolin-2-yl)nicotinic acid] |  |  |  |  |  |  | insensitive to millimolar concentrations | more tolerant |
